{"source": "patent US8858952B2", "about": "“Methods and materials for generating T cells” (Mayo Foundation for Medical Education and Research, priority 2009, dated 2014)", "key": {"FR74-specific T cells": {"test_system": "FR74-specific T cells", "assay": "Proliferation (thymidine incorporation) of T cells generated ex vivo with polypeptides", "type": "cell-based, FVB/N mice", "conditions": "thymidine incorporation against native FR74; FIG. 5", "method": "FIG. 5 is a graph plotting proliferation (as measured by thymidine incorporation (CPM)) of T cells treated with the indicated polypeptides. Epitope nesting activates high affinity antigen-specific T cells. T cells were tested for incorporation against native FR74 polypeptide at various concentrations. Each data point is the mean of 3 determinations.\nIn terms of proliferation, only the dual modified polypeptide was able to generate T cells that were able to proliferate at 10^−9 g/mL (FIG. 5).\nIn order to determine whether furin cleavage is required, two methods are used: furin insensitive linkers and furin inhibitors. Blockade of enhanced ex vivo expansion mediated by the DC3 peptide using these two methods is powerful evidence, outside of a furin knockout mouse, that furin is required for the actions of DC3. Although it has already been shown that DC3 must be linked to antigen, as a control T cells are expanded using free FR74 mixed with free DC3. To test the role of furin with furin-insensitive linkers, RARR (SEQ ID NO:4) is replaced with VRVV (SEQ ID NO:41) with the polypeptides FR74.1, FR74.3, and FR74.8 as shown in FIG. 17. In parallel with these cultures, cultures are included in which inhibitors are included. […] On day 5, CPG is added to the cultures at 1 μg/mL, and the cells are ready for T cell induction on day 6. […]"}, "splenocytes": {"test_system": "splenocytes", "assay": "Immunization with polypeptide-pulsed DC, splenocyte proliferation", "type": "in vivo, FVB/N mice", "conditions": "DC pulsed 2 hours; splenocytes at 1 week; FIG. 30", "method": "FIG. 30. DC pulsed with modified polypeptides are more immunogenic than FR74-pulsed DC. […] Control=DC pulsed with media.\nAlternatively, the strategies developed herein can be applied to other fields of immunotherapy. […] In that experiment, bone-marrow derived DC were pulsed with either PBS, FR74 peptide, or FR74.4 peptide for 2 hours. The DC were washed and injected into FVB/N mice."}}, "note": "Where no end group is shown, it is not given here. [ ]: non-standard residue; d: D form. Ava = NCCCCC(=O)O"}
{"substance": "FR74.4: dual conjugated polypeptide: FR74 nested between Ii-key and DC3 (Ac-LRMK[Ava]KDISYLYRFNWNHCGRARRFYPSYHSTPQRP)", "values": [{"measurement": "lowest peptide concentration at which generated T cells proliferate", "setting": "FR74-specific T cells", "result": "10^−9 g/mL"}, {"measurement": "splenocyte proliferation in response to native FR74 antigen after DC immunization", "setting": "splenocytes", "result": "significantly elevated proliferative response"}]}
